The source of these data is patent US7105679B2, “Heteroatom containing tetracyclic derivatives as selective estrogen receptor modulators” (priority 2001, dated 2006).

Like-named read-outs stand apart in the source and are kept apart here. A value given as a limit tells only on which side of the number the result lay.

Data set [1] concerns the target T1, human estrogen receptor α (Homo sapiens, UniProt P03372).
T1 construct: purchased Panvera
T1 sequence (P03372 1-595): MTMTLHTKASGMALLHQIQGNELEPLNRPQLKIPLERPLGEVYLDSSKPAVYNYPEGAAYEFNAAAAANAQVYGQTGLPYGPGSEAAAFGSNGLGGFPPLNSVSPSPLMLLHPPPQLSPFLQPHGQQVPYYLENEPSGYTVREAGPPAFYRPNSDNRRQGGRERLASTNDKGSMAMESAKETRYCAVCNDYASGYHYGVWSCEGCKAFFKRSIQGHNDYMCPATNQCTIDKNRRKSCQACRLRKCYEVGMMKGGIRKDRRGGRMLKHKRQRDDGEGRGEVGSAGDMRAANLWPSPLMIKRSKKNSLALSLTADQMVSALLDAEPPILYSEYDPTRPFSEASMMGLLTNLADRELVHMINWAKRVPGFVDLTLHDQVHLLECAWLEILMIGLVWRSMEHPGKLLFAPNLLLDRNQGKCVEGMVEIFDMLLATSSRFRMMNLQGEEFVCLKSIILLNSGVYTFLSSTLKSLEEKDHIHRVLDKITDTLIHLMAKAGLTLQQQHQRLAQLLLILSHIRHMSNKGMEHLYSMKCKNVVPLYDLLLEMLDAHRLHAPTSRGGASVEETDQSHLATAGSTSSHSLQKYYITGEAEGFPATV
The data set can be described thus: Estrogen Receptor α Flash Plate Assay (binding of radiolabeled estrogen).

For another data set, the target named is T2, hER-β (Homo sapiens, UniProt Q92731).
T2 construct: purchased Panvera
The data set can be described thus: Estrogen Receptor β Fluorescence Polarization Assay (binding of Fluormone ES2). From the text: This assay monitors binding of a fluorescent analog of estrogen (Fluormone ES2, Panvera) to the estrogen receptor. Plates are read in a fluorometer that can be set to polarization mode. A decrease in […] relative to vehicle control is an indication of binding of a compound to the receptor.
It is crucial to avoid introduction of air bubbles into the reaction in each well of the 96 well plate throughout this procedure. (Bubbles on the surface of the reaction disrupt light flow, affecting the polarization reading.) However, it is also crucial to effectively mix the reaction components upon addition to the well.
On ice, a 2× standard mixture of Assay Buffer (Panvera), 10 nM DTT and 40 nM ES2 was prepared. On ice, a 2× reaction mixture of Assay Buffer (Panvera), and 20 nM hER-β (Panvera) and 40 nM ES2 was also prepared.
Dilutions of test compound were prepared in 30% (v/v) dimethyl sulfoxide/50 mM HEPES, pH 7.5. At this point, the dilutions were 40× the final required concentration.
The standard mixture at 50 μL was then added to each well. The reaction mixture at 48 μL was added to all wells. The compound dilution at 2.5 μL was added to the appropriate wells. The reaction mixtures were mixed using a manual pipette, a roll of aluminum foil adhesive cover was placed on the plate and the plate incubated at room temperature for 1 hour.
In general terms: Fluorescence polarisation rises when a labelled molecule tumbles more slowly, as on binding a larger partner.

Another data set relates to MCF-7 cells. The experiment in a line: MCF-7 Cell Proliferation Assay (14C-thymidine, agonist and antagonist mode). The class given is cell-based. The following applies: number in brackets = number of tests, NA = no detected activity at test concentration.
Another data set relates to Ishikawa cells. The data set can be described thus: Alkaline Phosphatase Assay in Human Endometrial Ishikawa Cells (agonist and antagonist mode). As to conditions: number in brackets = number of tests, NA = no detected activity at test concentration; for IC50: antagonist mode with 10 nM 17β-estradiol; for EC50: agonist mode. The class given is cell-based.
The mark [2] stands for this setting: Homo sapiens, MCF7, antagonist mode with 10 nM 17β-estradiol.
Setting [3] is: flash plate binding, 0.5 nM radiolabeled estrogen, number in brackets = No. of determinations, NA = no detected activity at test concentration, read-out: Estrogen Receptor α in μM (No.).
The mark [4] stands for this setting: fluorescence polarization binding, Fluormone ES2, number in brackets = No. of determinations, NA = no detected activity at test concentration, read-out: Estrogen Receptor β in μM (No.).
[5] abbreviates: Homo sapiens, MCF7, agonist mode.

T2 sequence (Q92731 whole entry): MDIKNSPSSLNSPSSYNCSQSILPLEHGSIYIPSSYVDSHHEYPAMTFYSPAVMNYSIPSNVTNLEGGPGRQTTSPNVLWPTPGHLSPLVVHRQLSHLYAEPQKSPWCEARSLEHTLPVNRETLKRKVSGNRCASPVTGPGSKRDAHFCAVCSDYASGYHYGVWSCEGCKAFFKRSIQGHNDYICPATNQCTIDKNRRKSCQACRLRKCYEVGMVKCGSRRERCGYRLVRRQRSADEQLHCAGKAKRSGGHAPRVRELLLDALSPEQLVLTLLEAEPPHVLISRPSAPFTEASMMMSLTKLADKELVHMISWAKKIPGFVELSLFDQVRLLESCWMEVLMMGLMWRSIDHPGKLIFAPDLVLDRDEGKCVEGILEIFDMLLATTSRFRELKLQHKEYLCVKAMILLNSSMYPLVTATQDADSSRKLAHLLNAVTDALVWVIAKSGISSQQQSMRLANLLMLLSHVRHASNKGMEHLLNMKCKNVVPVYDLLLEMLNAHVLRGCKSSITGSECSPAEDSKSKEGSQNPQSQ

Consider `CC(C)(C)[Si](C)(C)Oc1ccc2c(c1)OCc1c-2c(=O)oc2cc(O[Si](C)(C)C(C)(C)C)ccc12`, for which the melting point lay in the range of 150 to 151 °C.
On the same count and under the same terms, to `CC(C)(C)[Si](C)(C)Oc1ccc2c(c1)OC(O)C1=C2COc2cc(O[Si](C)(C)C(C)(C)C)ccc21` (centres unmarked) belongs 188 to 190 °C.
Same read-out and setting: to `CC(C)(C)[Si](C)(C)Oc1ccc2c(c1)OCc1c-2c(=O)oc2cc(F)ccc12` belongs 197 to 198 °C; to `CC(C)(C)[Si](C)(C)Oc1ccc2c(c1)OCC1=C2C(O)Oc2cc(F)ccc21` (centres unmarked), 166 to 167 °C.
Consider `COc1ccc2c(c1)OC(c1ccc(OCCN3CCCCC3)cc1)C1=C2CCOc2cc(OC)ccc21` (single isomer, unassigned) [Compound 300, 5R*-(+)-1-{2-[4-(2,8-Dimethoxy-11,12-dihydro-5H-6,13-dioxa-benzo[3,4]cyclohepta[1,2-a]naphthalen-5-yl)-phenoxy]-ethyl}-piperidine], for which the IC50 in data set [1] was 0.06 µM; at hER-β, greater than 10 µM; in the data set on MCF-7 cells (setting [2]), 17400 nM; with Ishikawa cells (Homo sapiens), greater than 100000 nM.
As to `COc1ccc2c(c1)OCCC1=C2C(c2ccc(OCCN3CCCCC3)cc2)Oc2cc(O)ccc21` (single isomer, unassigned) [Compound 301, 2-Methoxy-5R*-(+)-[4-(2-piperidin-1-yl-ethoxy)-phenyl]-11,12-dihydro-5H-6,13-dioxa-benzo[3,4]cyclohepta[1,2-a]naphthalen-8-ol], the IC50 in data set [1] (setting [3]) came out at 0.0041 µM; at hER-β (setting [4]), 0.189 µM.
The like results for `COc1ccc2c(c1)OC(c1ccc(OCCN3CCCCC3)cc1)C1=C2CCOc2cc(O)ccc21` (single isomer, unassigned) [Compound 302, 8-Methoxy-5R*-(+)-[4-(2-piperidin-1-yl-ethoxy)-phenyl]-11,12-dihydro-5H-6,13-dioxa-benzo[3,4]cyclohepta[1,2-a]naphthalen-2-ol] were, in that order, 0.0116 µM and 0.355 µM.
As to `Oc1ccc2c(c1)O[C@H](c1ccc(OCCN3CCCCC3)cc1)C1=C2COc2cc(O)ccc21` (stereo in doubt) [Compound 14, 5R*-(−)-[4-(2-Piperidin-1-yl-ethoxy)-phenyl]-5,11-dihydro-chromeno[4,3-c]chromene-2,8-diol], the IC50 in data set [1] (setting [3]) came to 0.0074 µM; on hER-β (setting [4]), 0.15 µM; with MCF-7 cells (antagonist mode with 10 nM 17β-estradiol), 5600 nM; in the data set with Ishikawa cells it was 149 nM. Moreover, the EC50 in the data set on MCF-7 cells (agonist mode) and in the data set with Ishikawa cells was greater than 10000 nM each time.
As to `O=c1oc2cc(O)ccc2c2c1-c1ccc(O)cc1OC2` [Compound 1, 2,8-Dihydroxy-11H-chromeno[4,3-c]chromen-5-one], the melting point is greater than 350 °C. In addition, the IC50 in data set [1] (setting [3]) stood at 0.505 µM. Also, the IC50 on hER-β (setting [4]) came out at 0.061 µM. The molecule also yielded a concentration giving a half-maximal response (EC50) in the data set on MCF-7 cells (setting [5]) of 1200 nM. For the same molecule, the IC50 with MCF-7 cells (setting [2]) was greater than 10000 nM. Moreover, in the data set with Ishikawa cells (Homo sapiens), the EC50 turned out to be 130 nM and the IC50 is greater than 10000 nM.
`COc1ccc2c(c1)OCc1c-2c(=O)oc2cc(OC)ccc12` [Compound 2, 2,8-DiMethoxy-11H-chromeno[4,3-c]chromen-5-one] gave a melting point of 200 to 201 °C. In the data set on MCF-7 cells (setting [5]), this molecule came in with an EC50 greater than 10000 nM. Moreover, the IC50 with MCF-7 cells (setting [2]) was greater than 10000 nM. In the data set on Ishikawa cells (Homo sapiens), this molecule registered a half-maximal effective concentration (EC50) greater than 10000 nM and an IC50 greater than 10000 nM.
`Oc1ccc2c(c1)OC(c1ccc(OCCN3CCCCC3)cc1)C1=C2COc2cc(O)ccc21` (centres unmarked) [Compound 9, 5-[4-(2-Piperidin-1-yl-ethoxy)-phenyl]-5,11-dihydrochromeno[4,3-c]chromene-2,8-diol]: the IC50 was 0.0023 µM in data set [1] (setting [3]), 0.084 µM on hER-β (setting [4]), 777 nM in the data set with MCF-7 cells (setting [2]) and 110 nM in the data set on Ishikawa cells (Homo sapiens). Moreover, the concentration giving a half-maximal response (EC50) in the data set on MCF-7 cells (setting [5]) and in the data set on Ishikawa cells (Homo sapiens) was greater than 10000 nM throughout.
For the molecule `CCN(CC)CCOc1ccc(C2Oc3cc(O)ccc3C3=C2c2ccc(O)cc2OC3)cc1` (centres unmarked) [Compound 19, 5-[4-(2-Diethylamino-ethoxy)-phenyl]-5,11-dihydrochromeno[4,3-c]chromene-2,8-diol], the IC50 in data set [1] (setting [3]) turned out to be 0.0019 µM; at hER-β (setting [4]), 0.099 µM; with MCF-7 cells (setting [2]), 713 nM; in the data set on Ishikawa cells (Homo sapiens) it was 250 nM. In addition, the 50% effective concentration (EC50) with MCF-7 cells (setting [5]) and in the data set with Ishikawa cells (Homo sapiens) was greater than 10000 nM each time.
Consider `CN(C)CCOc1ccc(C2Oc3cc(O)ccc3C3=C2c2ccc(O)cc2OC3)cc1` (centres unmarked) [Compound 21, 5-[4-(2-Dimethylamino-ethoxy)-phenyl]-5,11-dihydrochromeno[4,3-c]chromene-2,8-diol], for which the IC50 in data set [1] (setting [3]) was found to be 0.015 µM; on hER-β (setting [4]), 0.011 µM; in the data set with MCF-7 cells (setting [2]), 970 nM; with Ishikawa cells (Homo sapiens) it was 830 nM. For the same molecule, the EC50 in the data set with MCF-7 cells (setting [5]) and in the data set on Ishikawa cells (Homo sapiens) was greater than 10000 nM throughout.
As for `CN(C)c1ccc(C2Oc3cc(O)ccc3C3=C2c2ccc(O)cc2OC3)cc1` (centres unmarked) [Compound 26, 5-[4-Dimethylamino-phenyl]-5,11-dihydro-chromeno[4,3-c]chromene-2,8-diol], the IC50 in data set [1] (setting [3]) is 0.014 µM; at hER-β (setting [4]), 0.02 µM; in the data set on MCF-7 cells (setting [2]), greater than 10000 nM; in the data set with Ishikawa cells (Homo sapiens) it was 180 nM. Also, the concentration for a half-maximal effect (EC50) with MCF-7 cells (setting [5]) was 64.3 nM; with Ishikawa cells (Homo sapiens) it was greater than 10000 nM.
`CC(C)(C)C(=O)Oc1ccc2c(c1)OC(c1ccc(OCCN3CCCCC3)cc1)C1=C2C(O)Oc2cc(OC(=O)C(C)(C)C)ccc21` (centres unmarked) [Compound 28]: the IC50 stood at 0.14 µM in data set [1] (setting [3]) and 6.25 µM at hER-β (setting [4]).
For the molecule `CC1(c2ccc(OCCN3CCCCC3)cc2)Oc2cc(O)ccc2C2=C1c1ccc(O)cc1OC2` (centres unmarked) [Compound 29], the IC50 in data set [1] (setting [3]) amounted to 0.004 µM; on hER-β (setting [4]), 0.017 µM.
`O=c1oc2cc(F)ccc2c2c1-c1ccc(O)cc1OC2` [Compound 37, 8-Fluoro-2-hydroxy-11H-chromeno[4,3-c]chromen-5-one]: the melting point was in the range of 259 to 260 °C.
Turning to `CC(C)(C)C(=O)Oc1ccc2c(c1)OC(C)(c1ccc(OCCCN3CCCCC3)cc1)C1=C2COc2cc(OC(=O)C(C)(C)C)ccc21` (centres unmarked) [Compound 43, 2,2-Dimethyl-propionic acid 8-(2,2-dimethyl-propionyloxy)-11-methyl-11-[4-(3-piperidin-1-yl-propoxy)-phenyl]-5,11-dihydro-chromeno[4,3-c]chromen-2-yl ester], the IC50 in data set [1] (setting [3]) was 0.62 µM; on hER-β (setting [4]), 0.165 µM; in the data set on MCF-7 cells (setting [2]), greater than 1000 nM; in the data set on Ishikawa cells (Homo sapiens) it was 1600 nM. Besides, the 50% effective concentration (EC50) in the data set with MCF-7 cells (setting [5]) and with Ishikawa cells (Homo sapiens) was greater than 10000 nM throughout.

By melting point is commonly meant the temperature, or range, at which the solid turns liquid. The term EC50 denotes the concentration needed to bring the measured effect to its halfway point. A high value points to a less potent agent.
